From ChEMBL document CHEMBL1201862, “PubChem BioAssay data set” (2004)
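The compound was tested at five concentrations on cells cultured in 96-well plates, with a 48-hour exposure period. GI50 marks 50% less growth.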 The source made the active and inactive calls. Rule as the data show it: active = GI50 up to about 1.1 µM and inactive = higher.

How the values were obtained:
Assay in all cases: NCI-60 cell line screen, 48 h
A498 = system: A498
CCRF-CEM = system: CCRF-CEM
DU-145 = system: DU-145
HCT-15 = system: HCT-15
Hs-578T = system: Hs-578T
M14 = system: M14
MCF7 = system: MCF7
NCI-H23 = system: NCI-H23
NCI-H522 = system: NCI-H522
OVCAR-5 = system: OVCAR-5
PC-3 = system: PC-3
RXF 393 = system: RXF 393
SK-MEL-28 = system: SK-MEL-28
SK-MEL-5 = system: SK-MEL-5
SK-OV-3 = system: SK-OV-3
SR = system: SR
UACC-257 = system: UACC-257
UACC-62 = system: UACC-62
UO-31 = system: UO-31
NCI-H226 = system: NCI-H226

SMILES | GI50 (A498) | GI50 (CCRF-CEM) | GI50 (DU-145) | GI50 (HCT-15) [µM] | GI50 (Hs-578T) | GI50 (M14) | GI50 (MCF7) | GI50 (NCI-H23) | GI50 (NCI-H522) | GI50 (OVCAR-5) | GI50 (PC-3) | GI50 (RXF 393) | GI50 (SK-MEL-28) | GI50 (SK-MEL-5) | GI50 (SK-OV-3) | GI50 (SR) | GI50 (UACC-257) | GI50 (UACC-62) | GI50 (UO-31) | GI50 (NCI-H226)
Nc1ccc(-c2nc3ccccc3s2)cc1Br | 2.44 µM (inactive) | 32 µM (inactive) | > 100 µM (inactive) | 62.8 | 24 µM (inactive) | 97.9 µM (inactive) | < 0.01 µM (active) | 63.7 µM (inactive) | > 100 µM (inactive) | 0.134 µM (active) | 69.7 µM (inactive) | > 38.9 µM (inactive) | > 100 µM (inactive) | > 100 µM (inactive) | > 71.4 µM (inactive) | > 94.8 µM (inactive) | > 100 µM (inactive) | > 100 µM (inactive) | 27.5 µM (inactive) | 
COc1ccc2c(c1)c(=O)c1c(NCCCN(C)CCCNc3ccc4c(=O)n(CCN(C)C)c(=O)n5c6ccc(OC)cc6c(=O)c3c45)ccc3c(=O)n(CCN(C)C)c(=O)n2c31 | 0.305 µM (active) | < 0.01 µM (active) | < 0.012 µM (active) | < 0.0258 | 0.105 µM (active) | 0.594 µM (active) | < 0.01 µM (active) | < 0.0324 µM (active) | < 0.0193 µM (active) | 0.29 µM (active) | < 0.0147 µM (active) | < 0.0202 µM (active) | 0.415 µM (active) |  | 0.217 µM (active) | < 0.01 µM (active) | 0.352 µM (active) | 0.305 µM (active) | < 0.0181 µM (active) | < 0.01 µM (active)
Nc1nc(N)c2nnn(C[C@H]3CC[C@@H](CO)C3)c2n1 | > 100 µM (inactive) | > 100 µM (inactive) | > 100 µM (inactive) | > 100 | > 100 µM (inactive) | > 100 µM (inactive) | > 100 µM (inactive) | > 100 µM (inactive) | > 100 µM (inactive) | > 100 µM (inactive) | > 100 µM (inactive) | > 100 µM (inactive) | > 100 µM (inactive) |  | > 100 µM (inactive) | > 100 µM (inactive) | > 100 µM (inactive) | > 100 µM (inactive) | > 100 µM (inactive) | > 100 µM (inactive)
c1csc(-c2cscc2-c2cccs2)c1 | > 100 µM (inactive) | 44.1 µM (inactive) | 1.31 µM (inactive) | 35.8 | 54.8 µM (inactive) | 27.7 µM (inactive) | 20.2 µM (inactive) | 28.2 µM (inactive) |  | 24.1 µM (inactive) | 5.38 µM (inactive) | 27.6 µM (inactive) | > 100 µM (inactive) | 46.8 µM (inactive) | 32.9 µM (inactive) | 27.7 µM (inactive) | 95.1 µM (inactive) | 72.3 µM (inactive) | 58.2 µM (inactive) | 27.1 µM (inactive)
CC(=O)OC1=C(CC(C)(C)C)C(=O)c2ccccc2C1=O | 13.5 µM (inactive) | 19.3 µM (inactive) | 46.7 µM (inactive) | 31.8 | 14.5 µM (inactive) | 30.4 µM (inactive) | 39.5 µM (inactive) | 15.6 µM (inactive) |  |  | 29.1 µM (inactive) | 28.3 µM (inactive) | 42.4 µM (inactive) | 15.9 µM (inactive) | 25.3 µM (inactive) | 20.5 µM (inactive) | 38.5 µM (inactive) | 32.1 µM (inactive) | 33.4 µM (inactive) | 19.8 µM (inactive)
Cc1cc2nc(C=C(C(F)(F)F)C(F)(F)F)oc2cc1C | > 10 µM (inactive) | 1.06 µM (active) | 5.64 µM (inactive) | 3.37 | 3.37 µM (inactive) | 2.51 µM (inactive) | 0.472 µM (active) | 2.49 µM (inactive) | 3.12 µM (inactive) | 3.04 µM (inactive) | 2.47 µM (inactive) | 2.49 µM (inactive) | > 10 µM (inactive) | > 10 µM (inactive) | > 10 µM (inactive) | 2.22 µM (inactive) | > 10 µM (inactive) | 3.32 µM (inactive) | 4.11 µM (inactive) | 
COc1cccc(CCn2c(N)c(C(=O)O)c3ccc([N+](=O)[O-])cc3c2=O)c1 | 40.5 µM (inactive) | > 100 µM (inactive) | 40.2 µM (inactive) | 31.8 | 33.2 µM (inactive) | 45.3 µM (inactive) | 20.1 µM (inactive) | 19.5 µM (inactive) | 28.3 µM (inactive) | 52.2 µM (inactive) | 29.2 µM (inactive) | 28.7 µM (inactive) | > 100 µM (inactive) | 24 µM (inactive) | 35.6 µM (inactive) | 40.1 µM (inactive) |  | 52.4 µM (inactive) | 31.2 µM (inactive) | 44 µM (inactive)
NCCSS(=O)(=O)CCN | > 100 µM (inactive) | > 100 µM (inactive) | > 100 µM (inactive) | > 100 | > 100 µM (inactive) | > 100 µM (inactive) | > 100 µM (inactive) | > 100 µM (inactive) | > 100 µM (inactive) | > 100 µM (inactive) | > 100 µM (inactive) | > 100 µM (inactive) | > 100 µM (inactive) | > 100 µM (inactive) | > 100 µM (inactive) | > 100 µM (inactive) |  | > 100 µM (inactive) | > 100 µM (inactive) | > 100 µM (inactive)
CCOC(=O)C1(C(=O)OCC)Nc2cccnc2N(C)N1 | 17.5 µM (inactive) | 18.5 µM (inactive) | 18.7 µM (inactive) | 18 | > 100 µM (inactive) | 19.3 µM (inactive) | 16.3 µM (inactive) | 20.5 µM (inactive) |  |  | 22.8 µM (inactive) | 18 µM (inactive) | 21.9 µM (inactive) | 17.4 µM (inactive) | > 100 µM (inactive) | 37.1 µM (inactive) | 17.6 µM (inactive) | 18 µM (inactive) | 17.4 µM (inactive) | 18.4 µM (inactive)
CC(C)/C(Cl)=N\OC(=O)Nc1ccccc1F | 14.9 µM (inactive) | 0.741 µM (active) | 16.4 µM (inactive) | 16.2 | 25.9 µM (inactive) | 5.73 µM (inactive) | 5.64 µM (inactive) | 17.7 µM (inactive) |  | 18.5 µM (inactive) | 17.2 µM (inactive) | 3.15 µM (inactive) | 16.6 µM (inactive) | 14.5 µM (inactive) | 19.2 µM (inactive) | 2.25 µM (inactive) | 18.3 µM (inactive) | 17.3 µM (inactive) | 16.1 µM (inactive) | 15.1 µM (inactive)
O=C(CC(O)(C(F)(F)F)C(F)(F)Cl)CC(O)(C(F)(F)F)C(F)(F)Cl (configuration not stated) | 2.29 µM (inactive) | 3.86 µM (inactive) | 1.17 µM (inactive) | 1.79 | 2.07 µM (inactive) | 3.65 µM (inactive) | 2.79 µM (inactive) | 1.25 µM (inactive) | 1.61 µM (inactive) |  | 1.64 µM (inactive) | 2.23 µM (inactive) | 4.34 µM (inactive) | 1.72 µM (inactive) | 1.4 µM (inactive) | > 10 µM (inactive) | 1.32 µM (inactive) | 1.65 µM (inactive) | 1.44 µM (inactive) | 2.36 µM (inactive)
NC(=O)CSc1c2cc(O)ccc2nc2ccc(O)cc12 | > 10 µM (inactive) | > 10 µM (inactive) | > 10 µM (inactive) | > 10 | > 10 µM (inactive) | > 10 µM (inactive) | > 10 µM (inactive) | > 10 µM (inactive) | > 10 µM (inactive) | > 10 µM (inactive) | > 10 µM (inactive) | > 10 µM (inactive) | > 10 µM (inactive) | > 10 µM (inactive) | > 10 µM (inactive) | > 10 µM (inactive) | > 10 µM (inactive) | > 10 µM (inactive) |  | > 10 µM (inactive)
COc1ccc(C(=O)N(Cc2cccnc2)C(=S)N(Cc2cccnc2)C(=O)c2ccc(OC)cc2)cc1 | > 100 µM (inactive) | > 100 µM (inactive) | > 100 µM (inactive) | > 100 | > 100 µM (inactive) | > 100 µM (inactive) | > 100 µM (inactive) | > 100 µM (inactive) | 72.1 µM (inactive) | > 100 µM (inactive) | > 100 µM (inactive) | 38.8 µM (inactive) | > 100 µM (inactive) | > 100 µM (inactive) | 67.3 µM (inactive) | > 100 µM (inactive) | > 100 µM (inactive) | > 100 µM (inactive) |  | > 100 µM (inactive)
CC(C)(C)c1ccc(-c2nc3ccccc3c(=O)o2)cc1 | 71.6 µM (inactive) | 19.3 µM (inactive) | 59.7 µM (inactive) | 37.5 | 68.7 µM (inactive) | 42.3 µM (inactive) | 27.7 µM (inactive) | 34.3 µM (inactive) | 30.3 µM (inactive) | 44.2 µM (inactive) | 38.4 µM (inactive) | 95.9 µM (inactive) | 42.5 µM (inactive) | 17 µM (inactive) | 83.4 µM (inactive) | 22.5 µM (inactive) | 81.3 µM (inactive) | 30.3 µM (inactive) | 43.1 µM (inactive) | 
C=C(C)[C@H]1C2=CC(C)=C(O2)[C@@H](O)[C@H](C(=C)C)CCC2=C[C@H]1OC2=O [KALLOLIDE A] | > 100 µM (inactive) | > 100 µM (inactive) | > 100 µM (inactive) | > 100 | > 100 µM (inactive) | > 100 µM (inactive) | > 100 µM (inactive) |  | 87.7 µM (inactive) | > 100 µM (inactive) | > 100 µM (inactive) | > 100 µM (inactive) | > 100 µM (inactive) | > 100 µM (inactive) |  | 99.5 µM (inactive) | > 100 µM (inactive) | > 100 µM (inactive) | > 100 µM (inactive) | > 100 µM (inactive)
